Here are results for 3 molecules from US20110059909A1, “METHODS FOR TREATING INFLAMMATORY DISORDERS” (priority 2004, published 2011).

The target in data set [1] is T1, LacCer synthase (GalT-2) (Rattus norvegicus, UniProt O88419).
T1 construct: using cell lysates derived from cells stimulated with LPS/IFNγ; endogenous in cells; host or cells: rat primary astrocytes
T1 sequence (O88419 1-382): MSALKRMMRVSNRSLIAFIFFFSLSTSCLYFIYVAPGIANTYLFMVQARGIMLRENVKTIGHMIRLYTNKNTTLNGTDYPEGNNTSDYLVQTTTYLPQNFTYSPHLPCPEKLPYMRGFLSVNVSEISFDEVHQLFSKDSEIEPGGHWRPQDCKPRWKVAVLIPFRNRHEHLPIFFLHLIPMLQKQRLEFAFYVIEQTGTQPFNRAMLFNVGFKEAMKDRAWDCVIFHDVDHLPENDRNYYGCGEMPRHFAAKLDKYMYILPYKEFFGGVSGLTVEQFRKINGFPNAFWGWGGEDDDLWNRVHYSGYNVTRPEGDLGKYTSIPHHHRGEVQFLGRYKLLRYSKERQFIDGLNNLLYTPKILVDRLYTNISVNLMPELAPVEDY
Kind of data set: Measurement of [14C]LacCer synthesis in primary astrocytes (HPTLC). In kind it is cell-based. The protocol: Cultured cells were incubated in growth medium containing [^14C]galactose (5 μCi/ml) for 24 h as described previously. The medium was removed, and the cell monolayer was washed with sterile PBS. After the stimulation with LPS/IFNγ (1 μg/ml; 10 U/ml) for various durations, cells were then harvested and washed with ice cold PBS and lysed by sonication. 200 μg of protein was used for extraction of lipids using Chloroform:Methanol:HCl (100:100:1). The organic phase was dried under nitrogen. Glycosphingolipids were resolved by high performance thin layer chromatography using chloroform/methanol/0.25% KCl (70:30:4, v/v/v) as the developing solvent. The gel area corresponding to LacCer was scraped, and radioactivity was measured employing “liquiscint” (NEN Life Science Products) as a scintillating fluid.

Data set [2] concerns small GTPase Ras. Kind of data set: Quantification of Ras activation (GST-Raf-1 RBD pull-down) in primary astrocytes. In kind it is cell-based, rat. The protocol: After stimulation, primary astrocytes in 6-well plates were washed with ice cold PBS and lysed in membrane lysis buffer (MLB; 0.5 ml of 25 mM HEPES, pH 7.5, 150 mM NaCl, 1% Igepal CA-630, 0.25% sodium deoxycholate, 10% glycerol, 10 mM MgCl2, 1 mM EDTA, 25 mM NaF, 1 mM of sodium orthovanadate, and EDTA free Complete™ protease inhibitor cocktail). After centrifugation (5,000×g) at 4° C. for 5 min, supernatant was used for Ras activation assay. One hundred μg of supernatant was used for binding with agarose conjugated Ras-binding domain (RBD) of Raf-1 which was expressed in BL21 (Invitrogen), Escherichia coli strain, transformed by pGEX-2T-GST-RBD in the presence of 0.1 mM of IPTG as described previously (Herrmann et al., 1995). The binding reaction was performed at 4° C. for 30 min in MLB. Following washing with MLB three times, Ras-RBD complex were denatured by adding of 2×SDS sample buffer. Ras protein was identified by western blot analysis with Ras antibodies from Upstate Biotechnology.

The subject of data set [3] is IL-1β. Kind of data set: IL-1β mRNA in LPS/IFNγ-stimulated primary astrocytes. The data set is classed as cell-based, rat. The protocol: A 20-mer antisense oligonucleotide of the following sequence (5′-CGCTTGAGCGCAGACATCTT-3′, SEQ ID NO:1) targeted against rat lactosylceramide synthase (GalT-2) were synthesized by Integrated DNA Technology. A scrambled oligonucleotide (5′-CTGATATCGTCGATATCGAT-3′, SEQ ID NO:2) was also synthesized and used as control. Cells were counted and plated a day before transfection and the following day were treated with Oligofectamine (Invitrogen)-oligonucleotide complexes (200 nM oligo) under serum free conditions. 48 h following transfection, the protein levels of GalT-2 were analyzed using polyclonal antibodies raised against rat GalT-2 (Abjent Inc., CA). The transfected cells were stimulated with LPS/IFNγ (1 μg/ml) and levels of nitric oxide were checked 24 h following stimulation. iNOS mRNA and protein levels were checked at 6 h and 24 h, respectively, following stimulation of transfected cells.
5 μg total RNA was treated with 2 U DNAse I (bovine pancreas, Sigma) for 15 min at room temperature in 18 μl volume containing 1×PCR buffer and 2 mM MgCl2. It was then inactivated by incubation with 2 μl of 25 mM EDTA at 65° C. for 15 min. 2 μl of random primers were added and annealed to the RNA according to the manufacturer's protocol. cDNA was synthesized in a 50 μl reaction containing 5 μg of total RNA and 50-100 U reverse transcriptase by incubating the tubes at 42° C. for 60 min. […]

With `CCCCCCCCCC(=O)NC(CN1CCOCC1)C(O)c1ccccc1.Cl` [PDMP, D-threo-1-Phenyl-2-decanoylamino-3-morpholino-1-propanol.HCl], the “[14C]LacCer biosynthesis following LPS/IFNγ-stimulation” value in data set [1] is “inhibited this increase”. Moreover, in data set [2] (PDMP 50 μM 0.5 h, LPS/IFNγ 5 min), the “LPS/IFNγ-mediated activation of Ras” value was “reduced”. In addition, in data set [2] (pretreated 0.5 h, TNFα), the “TNFα-induced Ras activation” value is “attenuated”.

Regarding “AS GalT-2 oligonucleotides: 20-mer antisense oligonucleotide 5′-CGCTTGAGCGCAGACATCTT-3′, SEQ ID NO:1, against rat lactosylceramide synthase (GalT-2) (antisense CGCTTGAGCGCAGACATCTT; chemistry not given here)”, in data set [1], the “[14C]LacCer biosynthesis following LPS/IFNγ-stimulation” value was “diminished synthesis”. Moreover, the “[14C]LacCer synthesis upon TNFα-stimulation” value in data set [1] (TNFα 1 ng/ml) is “diminished synthesis”. Moreover, in data set [3] (LPS/IFNγ-stimulated astrocytes, 48 h after transfection), the “IL-1β mRNA expression” value is on record as “suppressed”.

On to Lactosylceramide [LacCer], for which the “Reversal of AS-mediated inhibition of IL-1β expression” value in data set [3] (exogenous LacCer, LPS/IFNγ) is given as “reversed”. Moreover, in data set [2] (LY 30 μM plus LacCer), the “Reversal of LY-mediated inhibition of TNFα-mediated Ras activation” value is listed as “bypassed”. Further, the “Reversal of PDMP-mediated reduction of LPS/IFNγ-mediated Ras activation” value in data set [2] (LacCer plus PDMP 50 μM, LPS/IFNγ 5 min) is listed as “fully reversed”. In data set [2] (PDMP 25 μM plus LacCer), the “Reversal of PDMP-mediated inhibition of TNFα-induced Ras activation” value is “fully reversed”. In addition, the “Reversal of DMS-mediated inhibition of Ras activation” value in data set [2] (exogenous lipid) was “reversed”.
